Assay [1] has as its system classical complement pathway. As to the kind of experiment: In vitro haemolysis assay (inhibition of classical complement pathway). The format is cell-based, human. Conditions: Table 3; human serum, sensitized sheep red blood cells; read-out: IC50[nM], in vitro analysis of inhibition of hemolysis. The procedure, abridged: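 Serially diluted compound (9 points) was preincubated 15 min at room temperature with diluted human serum, titrated per batch to give 70-90% maximal haemolysis, in Tris/casein buffer pH 7.4 with Mg2+/Ca2+. Antibody-sensitized sheep erythrocytes were then added for 30 min at 37° C, and the reaction was stopped with EDTA. Haemolysis was read at A405, with IC50 from 4PL fit.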

Assay [2] has as its target T1, Human C3 (Homo sapiens, UniProt P01024).
T1 construct: purchased Complement tech A1 13c (so in the source)
In words: Affinity measurement by surface plasmon resonance (SPR) with immobilized C3. The assay is classed as binding. Conditions: Table 7; immobilized C3, 25° C., pH 7.4. As to the method:
Surface plasmon resonance (SPR) was used to characterize peptides with respect to their binding affinity (Kd) for C3. Human C3 (Complement tech cat #A1 13c) was immobilised on individual flow cells of CM5 sensor chips (GE Healthcare) using standard amine coupling to a density of approximately 3000 resonance units (RU) in a buffer consisting of 10 mM phosphate pH 7.4, 150 mM NaCl, 0.05% Tween20. For interaction experiments a multi-cycle experiment approach was used and performed using either a Biacore™ T200 or Biacore™ X100 instrument (GE Healthcare) at 25° C. Peptides were injected in increasing concentration series (5-8 different concentrations) for 60-120 s at a flow rate of 30 μL/min in a buffer consisting of 10 mM Tris buffer at pH 7.4, with 150 mM NaCl and 0.05% Tween20. This was followed by a dissociation period for up to 10 min. […] Sensorgrams were double-referenced (reference surface, blanks) prior to analysis of the kinetic profiles by globally fitting data to a 1:1 Langmuir binding model to obtain association and dissociation rates for calculation of the equilibrium dissociation constant Kd. Each peptide was tested at in at least 2 independent experiments.

Molecules are shown by their SMILES. Starred links: 1 amine or outer side, 2 acyl side, 3 side chain; linkers in the order of their positions; H or OH if unused. Positions of bridges follow the written chain, without caps; N, C: chain ends. Non-standard residues stand in square brackets, D forms with d. Residues, ends and D or L forms follow the SMILES beside them. Groups on a side chain read outwards from the residue. *: point of attachment. C20 diacid = O=C(O)CCCCCCCCCCCCCCCCCCC(=O)*; Trp(1-Me) = Cn1cc(C[C@H](N)C(=O)O)c2ccccc21; Abu(4-yl) = O=C([C@H](CC[*:3])N[*:1])[*:2]; C18 diacid = O=C(O)CCCCCCCCCCCCCCCCC(=O)*; γGlu = O=C(O)[C@H](CCC(=O)[*:2])N[*:1]; NMeI = CC[C@H](C)[C@H](NC)C(=O)O; AEEA = NCCOCCOCC(=O)O; Sar = CNCC(=O)O

As to `CC[C@H](C)[C@@H]1NC(=O)[C@@H](NC(=O)[C@H](Cc2ccccc2)NC(=O)[C@H](CCC(=O)O)NC(=O)[C@H](CO)NC(C)=O)CSSC[C@@H](C(=O)N(C)CC(=O)N[C@@H](CCC(=O)O)C(=O)NCCOCCOCC(=O)NCCOCCOCC(=O)N[C@@H](CCCCNC(=O)CC[C@H](NC(=O)CNC(=O)CC[C@H](NC(=O)CCCCCCCCCCCCCCCCC(=O)O)C(=O)O)C(=O)O)C(N)=O)NC(=O)[C@H](CCCNC(=N)N)NC(=O)[C@H](Cc2c[nH]cn2)NC(=O)[C@H](CCC(=O)O)NC(=O)CN(C)C(=O)[C@H](Cc2c[nH]c3ccccc23)NC(=O)[C@H](CC(=O)O)NC(=O)[C@H](CCC(N)=O)NC(=O)[C@H](Cc2cn(C)c3ccccc23)NC1=O` [Compound 144, Ac-SEFC(1)I[1-Me-Trp]QDW[Sar]EHRC(1)[Sar]E[Peg3][Peg3]-K([17-carboxy-heptadecanoyl][γGlu]G[γGlu])-NH2] (Ac-SEFCI[Trp(1-Me)]QDW[Sar]EHRC[Sar]E[AEEA][AEEA]K([γGlu-Gly-γGlu-C18 diacid])-NH2; disulfide 4-14), the 50% inhibitory concentration (IC50) in assay [1] is less than 100 nM. Besides, the Kd in assay [2] is 1.5 nM.

Regarding `CC[C@H](C)[C@@H]1NC(=O)[C@@H](NC(=O)[C@H](Cc2ccccc2)NC(=O)[C@H](CCC(=O)O)NC(=O)[C@H](CO)NC(C)=O)CCSC[C@@H](C(=O)N(C)CC(=O)N[C@@H](CCC(=O)O)C(=O)NCC(=O)N[C@@H](CCC(=O)O)C(=O)NCCOCCOCC(=O)N[C@@H](CCC(=O)O)C(=O)N[C@@H](CO)C(=O)N[C@@H](CCCCNC(=O)CC[C@H](NC(=O)CNC(=O)CC[C@H](NC(=O)CCCCCCCCCCCCCCCCC(=O)O)C(=O)O)C(=O)O)C(N)=O)NC(=O)[C@H](CCCNC(=N)N)NC(=O)[C@H](Cc2c[nH]cn2)NC(=O)[C@H](CCC(=O)O)NC(=O)CN(C)C(=O)[C@H](Cc2c[nH]c3ccccc23)NC(=O)[C@H](CC(=O)O)NC(=O)[C@H](CCC(N)=O)NC(=O)[C@H](Cc2cn(C)c3ccccc23)NC1=O` [Compound 166, Ac-SEFhC(1)I[1-Me-Trp]QDW[Sar]EHRA(1)[Sar]EGE[Peg3]ES-K([17-carboxy-heptadecanoyl][γGlu]G[γGlu])-NH2] (Ac-SEF[Abu(4-yl)]I[Trp(1-Me)]QDW[Sar]EHRC[Sar]EGE[AEEA]ESK([γGlu-Gly-γGlu-C18 diacid])-NH2; thioether 4-14), the IC50 in assay [1] is less than 100 nM. This compound also registered a Kd in assay [2] of 6.5 nM.

Consider `CC[C@H](C)[C@@H]1NC(=O)[C@@H](NC(=O)[C@H](Cc2ccccc2)NC(=O)[C@H](CCC(=O)O)NC(=O)[C@H](CO)NC(C)=O)CSSC[C@@H](C(=O)N(C)CC(=O)N[C@@H](CCC(=O)O)C(=O)NCC(=O)N[C@@H](CCC(=O)O)C(=O)NCCOCCOCC(=O)NCCOCCOCC(=O)N[C@@H](CCCCNC(=O)CC[C@H](NC(=O)CNC(=O)CC[C@H](NC(=O)CCCCCCCCCCCCCCCCCCC(=O)O)C(=O)O)C(=O)O)C(N)=O)NC(=O)[C@H](CCCNC(=N)N)NC(=O)[C@H](Cc2c[nH]cn2)NC(=O)[C@H](CCC(=O)O)NC(=O)CNC(=O)[C@H](Cc2c[nH]c3ccccc23)NC(=O)[C@H](CC(=O)O)NC(=O)[C@H](CCC(N)=O)NC(=O)[C@H](Cc2cn(C)c3ccccc23)NC1=O` [Compound 128] (Ac-SEFCI[Trp(1-Me)]QDWGEHRC[Sar]EGE[AEEA][AEEA]K([γGlu-Gly-γGlu-C20 diacid])-NH2; disulfide 4-14), for which the IC50 in assay [1] was less than 100 nM. The Kd in assay [2] is 6.5 nM.

`CC[C@H](C)[C@@H]1NC(=O)[C@@H](NC(=O)[C@H](Cc2ccccc2)NC(=O)[C@H](CCC(=O)O)NC(=O)[C@H](CO)NC(C)=O)CSCC[C@@H](C(=O)N[C@H](C(=O)NCC(=O)N[C@@H](C)C(=O)N[C@@H](CCC(=O)O)C(=O)N[C@@H](CO)C(N)=O)[C@@H](C)O)NC(=O)[C@H](CCCNC(=N)N)NC(=O)[C@H](Cc2c[nH]cn2)NC(=O)[C@H](CCC(=O)O)NC(=O)CNC(=O)[C@H](Cc2c[nH]c3ccccc23)NC(=O)[C@H](CC(=O)O)NC(=O)[C@H](CCC(N)=O)NC(=O)[C@H](Cc2cn(C)c3ccccc23)NC1=O` [Compound 151, Ac-SEFA(1)I[1-Me-Trp]QDWGEHRhC(1)TGAES-NH2] (Ac-SEFCI[Trp(1-Me)]QDWGEHR[Abu(4-yl)]TGAES-NH2; thioether 4-14): the concentration for half-maximal inhibition (IC50) in assay [1] was less than 100 nM. Moreover, the dissociation constant (Kd) in assay [2] amounted to 1.4 nM.

With `CC[C@H](C)[C@H](NC(=O)[C@H](N)Cc1ccc(O)cc1)C(=O)N[C@H]1CSSC[C@@H](C(=O)N(C)[C@H](C(N)=O)[C@@H](C)CC)NC(=O)[C@H](CCCNC(=N)N)NC(=O)[C@H](Cc2c[nH]cn2)NC(=O)[C@H](C)NC(=O)CN(C)C(=O)[C@H](Cc2c[nH]c3ccccc23)NC(=O)[C@H](CC(=O)O)NC(=O)[C@H](CCC(N)=O)NC(=O)[C@H](Cc2cn(C)c3ccccc23)NC(=O)[C@H]([C@@H](C)CC)NC1=O` [Compound 48, H-{d}Y1C(1)I[1-Me-Trp]QDW[Sar]AHRC(1)[N-Me-Ile]-NH2] (H-[dY]ICI[Trp(1-Me)]QDW[Sar]AHRC[NMeI]-NH2; disulfide 3-13), the IC50 in assay [1] was less than 100 nM. Also, in assay [2], the Kd was determined as 0.12 nM.

Consider `CC[C@H](C)[C@H](NC(C)=O)C(=O)N[C@H]1CSSC[C@@H](C(=O)N[C@H](C(N)=O)[C@@H](C)O)NC(=O)[C@H](CCCNC(=N)N)NC(=O)[C@H](Cc2c[nH]cn2)NC(=O)[C@H](CCC(=O)O)NC(=O)CNC(=O)[C@H](Cc2c[nH]c3ccccc23)NC(=O)[C@H](CC(=O)O)NC(=O)[C@H](CCC(N)=O)NC(=O)[C@H](Cc2cn(C)c3ccccc23)NC(=O)[C@H]([C@@H](C)CC)NC1=O` [Compound 4] (Ac-ICI[Trp(1-Me)]QDWGEHRCT-NH2; disulfide 2-12), for which the IC50 in assay [1] was less than 100 nM. This compound also returned a dissociation constant (Kd) in assay [2] of 1.5 nM.

For `CC[C@H](C)[C@@H]1NC(=O)[C@@H](NC(=O)CN(C)C(=O)[C@H](CCC(=O)O)NC(=O)[C@H](CO)NC(C)=O)CSSC[C@@H](C(=O)N[C@H](C(=O)N[C@@H](CCC(=O)O)C(=O)N[C@@H](C)C(N)=O)[C@@H](C)O)NC(=O)[C@H](CCCNC(=N)N)NC(=O)[C@H](Cc2c[nH]cn2)NC(=O)[C@H](CCC(=O)O)NC(=O)CNC(=O)[C@H](Cc2c[nH]c3ccccc23)NC(=O)[C@H](CC(=O)O)NC(=O)[C@H](CCC(N)=O)NC(=O)[C@H](Cc2cn(C)c3ccccc23)NC1=O` [Compound 82] (Ac-SE[Sar]CI[Trp(1-Me)]QDWGEHRCTEA-NH2; disulfide 4-14), in assay [1], the concentration for half-maximal inhibition (IC50) is less than 100 nM. The compound further showed an equilibrium dissociation constant (Kd) in assay [2] of 5.4 nM.

For the compound `CC[C@H](C)[C@@H]1NC(=O)[C@@H](NC(=O)[C@H](Cc2ccc(O)cc2)NC(=O)[C@H](CCC(=O)O)NC(=O)[C@H](CO)NC(C)=O)CSSC[C@@H](C(=O)N(C)CC(=O)N[C@@H](CCC(=O)O)C(=O)N[C@@H](CCCCN)C(=O)N[C@@H](CCC(=O)N[C@@H](C)C(=O)N[C@@H](CCCCNC(=O)COCCOCCNC(=O)CC[C@H](NC(=O)COCCOCCNC(=O)CNC(=O)CC[C@H](NC(=O)CCCCCCCCCCCCCCCCC(=O)O)C(=O)O)C(=O)O)C(N)=O)C(=O)O)NC(=O)[C@H](CCCNC(=N)N)NC(=O)[C@H](Cc2c[nH]cn2)NC(=O)[C@H](CCC(=O)O)NC(=O)CN(C)C(=O)[C@H](Cc2c[nH]c3ccccc23)NC(=O)[C@H](CCC(=O)O)NC(=O)[C@H](CCC(N)=O)NC(=O)[C@H](Cc2cn(C)c3ccccc23)NC1=O` [Compound 121, Ac-SEYC(1)I[1-Me-Trp]QEW[Sar]EHRC(1)[Sar]K[γGlu]A-K([17-carboxy-heptadecanoyl][γGlu]G[Peg3][γGlu][Peg3])-NH2] (Ac-SEYCI[Trp(1-Me)]QEW[Sar]EHRC[Sar]EK[γGlu]AK([AEEA-γGlu-AEEA-Gly-γGlu-C18 diacid])-NH2; disulfide 4-14), the IC50 in assay [1] is less than 250 nM. This compound registered a dissociation constant Kd in assay [2] of 30 nM.
